{"source": "patent US12576253B2", "about": "“Drug delivery device with intravesical tolerability” (priority 2009, dated 2026)", "settings": "two six-day rabbits (4 mg device), spinal cord puncture at L7 just prior to euthanasia", "data": [{"compound": "CCN(CC)CC(=O)Nc1c(C)cccc1C", "note": "[lidocaine]", "values": [{"measurement": "lidocaine in cerebrospinal fluid", "result": "not detected"}]}]}
